Measured values: ChEMBL document CHEMBL4715804, “A Fluorescence Polarization Biophysical Assay for the Naegleria DNA Hydroxylase Tet1” (ACS Med Chem Lett, 2016)
Calls of active or inactive are those of the source. The calls are words filed in the database; no cut-off is given here.

Legend:
Naegleria = assay: (§1) Displacement of sodium 5-(3-(8-(3-carboxy-N-hydroxyacrylamido)octyl)thioureido)-2-(6-hydroxy-3-oxo-3H-xanthen-9-yl)benzoate from Naegleria Tet-1 at 5 mM incubated for 20 mins followed by sodium 5-(3-(8-(3-carboxy-N-hydroxyacrylamido)octyl)thioureido)-2-(6-hydroxy-3-oxo-3H-xanthen-9-yl)benzoate addition and further incubated 4 hrs and measured upto 20 hrs by competition fluorescence polarization assay; conditions: time hrs <=20
[1] = as §1, with “Tet-1” for “Tet-1 at 5 mM”
[2] = Binding affinity to Naegleria Tet1 assessed as dissociation constant incubated for 4 hrs and measured upto 20 hrs by fluorescence polarization assay

Nc1nc(=O)n([C@H]2C[C@H](O)[C@@H](CO)O2)cc1CO
inhibition (Naegleria): inactive

O=C(O)c1ccnc(C(=O)O)c1
IC50 [1]: 27 µM | Ki [1]: 9 µM

O=C(O)CCC(=O)C(=O)O [ALPHA-KETOGLUTARIC ACID]
IC50 [1]: 250 µM | Ki [1]: 83 µM

O=C(O)CC[C@@H](O)C(=O)O
IC50 [1]: 5200 µM | Ki [1]: 1700 µM

O=C(O)CNC(=O)C(=O)O [N-OXALYLGLYCINE]
IC50 [1]: 49 µM | Ki [1]: 16 µM

Cc1cn([C@H]2C[C@H](O)[C@@H](CO)O2)c(=O)nc1N
inhibition (Naegleria): inactive

O=C(O)/C=C/C(=O)N(O)CCCCCCCCNC(=S)Nc1ccc(-c2c3ccc(=O)cc-3oc3cc(O)ccc23)c(C(=O)O)c1
Kd [2]: 0.25 µM
